ChEMBL document CHEMBL6120940, “Discovery of N-Aryl-N'-[4-(aryloxy)cyclohexyl]squaramide-Based Inhibitors of LXR/SREBP-1c Signaling Pathway Ameliorating Steatotic Liver Disease: Navigating the Role of SIRT6 Activation” (J Med Chem, 2024)
The source made the active and inactive calls. The calls are words filed in the database; no cut-off is given here.

Assays:
[1] = AUC infinity in 16 hrs fasted ICR mouse at 20 mg/kg, po measured upto 8 hrs by LC-MS/MS analysis; assay type: ADME, organism-based; conditions: in vivo
[2] = AUC last in 16 hrs fasted ICR mouse at 20 mg/kg, po measured upto 8 hrs by LC-MS/MS analysis; assay type: ADME, organism-based; conditions: in vivo
[3] = system: HepG2; experiment: Cytotoxicity against human HepG2 cells at 10 uM measured after 24 hrs by CCK-8 method relative to control; assay type: functional
[4] = target: CYP2C9 (Homo sapiens, UniProt P11712); experiment: Inhibition of CYP2C9 in human liver microsomes at 10 uM using diclofenac as substrate preincubated for 5 mins followed by NADPH generating system addition and measured after 15 mins relative to control; assay type: ADME, Microsome; conditions: probe diclofenac, time 20 min
[5] = target: CYP2D6 (Homo sapiens, UniProt P10635); experiment: Inhibition of CYP2D6 in human liver microsomes at 10 uM using dextromethorphan as substrate preincubated for 5 mins followed by NADPH generating system addition and measured after 15 mins relative to control; assay type: ADME, Microsome; conditions: probe dextromethorphan, time 20 min
[6] = AUC last in 16 hrs fasted ICR mouse at 2 mg/kg, iv measured upto 8 hrs by LC-MS/MS analysis; assay type: ADME, organism-based; conditions: in vivo
[7] = AUC infinity in 16 hrs fasted ICR mouse at 2 mg/kg, iv measured upto 8 hrs by LC-MS/MS analysis; assay type: ADME, organism-based; conditions: in vivo
[8] = Volume of distribution at steady state in 16 hrs fasted ICR mouse at 2 mg/kg, iv measured upto 8 hrs by LC-MS/MS analysis; assay type: ADME, organism-based; conditions: in vivo, read-out: Vdss
[9] = Tmax in 16 hrs fasted ICR mouse at 20 mg/kg, po measured upto 8 hrs by LC-MS/MS analysis; assay type: ADME, organism-based; conditions: in vivo
[10] = Oral bioavailability in 16 hrs fasted ICR mouse at 20 mg/kg measured upto 8 hrs by LC-MS/MS analysis; assay type: ADME, organism-based; conditions: in vivo
[11] = system: HepG2; experiment: Downregulation of ACLY gene expression in human HepG2 cells in presence of T0901317 by RNA sequencing analysis; assay type: functional, cell-based
[12] = system: HepG2; experiment: Downregulation of ACACA gene expression in human HepG2 cells in presence of T0901317 by RNA sequencing analysis; assay type: functional, cell-based
[13] = system: HepG2; experiment: Downregulation of SCD gene expression in human HepG2 cells in presence of T0901317 by RNA sequencing analysis; assay type: functional, cell-based
[14] = (§1) Downregulation of SREBP-1c mRNA expression in human HepG2 cells pretreated with compound for 30 mins followed by T0901317 addition and measured after 12 hrs by RT-qPCR analysis; assay type: functional, cell-based
[15] = system: HepG2; experiment: as §1; assay type: functional, cell-based; conditions: dose 0.01-100 µM, time 12.5 hrs
[16] = system: HepG2; experiment: Downregulation of SREBP-1c expression level in human HepG2 cells pretreated with compound for 30 mins followed by T0901317 addition and measured after 12 hrs by RT-qPCR analysis; assay type: functional, cell-based; conditions: dose 5-10 µM, time 12.5 hrs
[17] = system: HepG2; experiment: Downregulation of SREBP-1c expression level in human HepG2 cells at 5 to 10 uM pretreated with compound for 30 mins followed by GW3965 addition and measured after 12 hrs by RT-qPCR analysis; assay type: functional, cell-based; conditions: dose 5-10 µM, time 12.5 hrs
[18] = system: HepG2; experiment: Downregulation of SREBP-1c expression level in human HepG2 cells at 10 uM pretreated with compound for 30 mins followed by T0901317 addition and measured after 12 hrs by immunocytochemical analysis; assay type: functional, cell-based; conditions: time 12.5 hrs
[19] = system: HepG2; experiment: Downregulation of ACACA mRNA level in human HepG2 cells at 10 uM pretreated with compound for 30 mins followed by […] addition and measured after 12 hrs by RT-qPCR analysis; assay type: functional, cell-based; conditions: time 12.5 hrs
[20] = system: Hepatocyte; experiment: Inhibition of Scd level in mouse hepatocyte at 10 uM preincubated with compound for 30 mins followed by T0901317 addition and measured after 12 hrs; assay type: functional, cell-based; conditions: time 12.5 hrs
[21] = system: Hepatocyte; experiment: Effect on Acox-2 gene expression in mouse hepatocyte; assay type: functional, cell-based
[22] = system: HepG2; experiment: Downregulation of SREBP-1c level in human HepG2 cells at 10 uM preincubated for 30 mins followed by OSS128167 addition and measured after 12 hrs; assay type: functional, cell-based; conditions: time 12.5 hrs
[23] = system: Mus musculus; experiment: Anti-lipogenic activity against high fat died induced male C57BL/6J mouse obesity model assessed as downregulation of Srebp-1c level at 15 mg/kg, po administered three times per week and measured after 5 weeks by RT-qPCT analysis; assay type: functional, organism-based
[24] = system: Mus musculus; experiment: Anti-lipogenic activity against high fat died induced male C57BL/6J mouse obesity model assessed as downregulation of Ccl2 mRNA level at 15 mg/kg, po administered three times per week and measured after 5 weeks by RT-qPCT analysis; assay type: functional, organism-based
[25] = system: Mus musculus; experiment: Anti-lipogenic activity against high fat died induced male C57BL/6J mouse obesity model assessed as downregulation of Ccl5 mRNA level at 15 mg/kg, po administered three times per week and measured after 5 weeks by RT-qPCT analysis; assay type: functional, organism-based
[26] = system: Mus musculus; experiment: Anti-lipogenic activity against high fat died induced male C57BL/6J mouse obesity model assessed as downregulation of F4/80 mRNA level at 15 mg/kg, po administered three times per week and measured after 5 weeks by RT-qPCT analysis; assay type: functional, organism-based

Chain of CYP2D6 (P10635 whole entry): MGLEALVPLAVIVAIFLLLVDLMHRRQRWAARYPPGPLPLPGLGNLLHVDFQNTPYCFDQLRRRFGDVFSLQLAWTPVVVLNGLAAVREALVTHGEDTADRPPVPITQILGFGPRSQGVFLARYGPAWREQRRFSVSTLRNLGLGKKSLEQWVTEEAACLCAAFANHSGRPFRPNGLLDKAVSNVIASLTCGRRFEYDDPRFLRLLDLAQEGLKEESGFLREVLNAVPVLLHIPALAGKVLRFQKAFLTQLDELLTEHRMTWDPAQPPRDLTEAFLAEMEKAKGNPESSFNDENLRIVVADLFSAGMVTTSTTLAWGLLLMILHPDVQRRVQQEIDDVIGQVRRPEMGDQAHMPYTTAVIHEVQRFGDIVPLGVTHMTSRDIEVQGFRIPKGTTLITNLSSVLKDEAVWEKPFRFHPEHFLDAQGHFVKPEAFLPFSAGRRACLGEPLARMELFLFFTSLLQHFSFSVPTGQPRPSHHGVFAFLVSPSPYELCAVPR
Chain of CYP2C9 (P11712 whole entry): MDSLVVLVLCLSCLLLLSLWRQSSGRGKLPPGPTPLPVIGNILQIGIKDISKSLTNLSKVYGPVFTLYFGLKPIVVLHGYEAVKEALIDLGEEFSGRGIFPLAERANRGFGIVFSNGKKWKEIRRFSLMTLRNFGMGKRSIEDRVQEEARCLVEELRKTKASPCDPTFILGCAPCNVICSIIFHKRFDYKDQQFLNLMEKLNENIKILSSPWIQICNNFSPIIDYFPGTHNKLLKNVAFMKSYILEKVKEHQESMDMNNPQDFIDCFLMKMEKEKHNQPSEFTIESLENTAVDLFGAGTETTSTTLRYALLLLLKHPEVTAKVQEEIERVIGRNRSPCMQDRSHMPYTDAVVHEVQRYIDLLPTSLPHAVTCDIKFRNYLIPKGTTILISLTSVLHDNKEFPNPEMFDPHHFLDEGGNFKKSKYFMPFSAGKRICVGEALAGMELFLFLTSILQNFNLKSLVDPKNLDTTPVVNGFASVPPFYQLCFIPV

## COc1ccccc1Nc1c(N[C@H]2CC[C@H](Oc3ccc([N+](=O)[O-])cc3)CC2)c(=O)c1=O
[1]
  AUC(0-inf): 2890 ng·h/mL
[2]
  AUC(0-t) at 8 h: 2820 ng·h/mL
[3]
  Activity: 90.3%
[4]
  inhibition at 0.25 h, 10 µM: 60.5%
[5]
  inhibition at 0.25 h, 10 µM: > 100%
[6]
  AUC(0-t) at 8 h: 2370 ng·h/mL
[7]
  AUC(0-inf): 2400 ng·h/mL
[8]
  Vd: 1.1 L/kg
[9]
  Tmax: 18 min
[10]
  bioavailability: 11.2%
[11]
  Activity: Active
[12]
  Activity: Active
[13]
  Activity: Active
[14]
  IC50: 2500 nM
[15]
  Activity: Dose-dependent-effect
[16]
  Activity: Dose-dependent-effect
[17]
  Activity: Active
[18]
  Activity: Active
[19]
  Activity: Active
[20]
  inhibition: Active
[21]
  Activity: inactive
[22]
  Activity: inactive
[23]
  Activity: Active
[24]
  Activity: Active
[25]
  Activity: Active
[26]
  Activity: Active
